The results in this text go back to patent publication US20070203066A1, “Compositions and methods for inhibiting cellular proliferation” (priority 2005, published 2007).

The test system of this assay is HUVECs. In kind it is cell-based. Particulars: HUVEC proliferation, bFGF at 10 ng/ml or VEGF at 5 ng/ml, 48 hours, BrdU incorporation; read-out: IC50 on HUVECs. The essentials:
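Proliferation read-out: BrdU incorporation after 48-hour culture (37 ° C, 5% CO2) with graded peptide doses. Cells were in EBM with 2% FCS at 5,000 per well, driven by VEGF (5 ng/ml) or bFGF (10 ng/ml), added after ≥12-hour attachment.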

Primed or numbered codes have the meaning given here. No end group written: not given here. Ida(3) = iminodiacetic acid linker, Lys side-chain amines bound to its two carboxyl groups Where only a bound is given, the exact number is not on record here.

On to “389 (Ac-ARRRRQAVGIYFK-NH2; not fully specified (residue 13); also: homodimer via Ida linker on Lys13 side chain, Ida amine Boc) [compound 389]”, for which the half-inhibitory concentration (IC50) was under 10 µM.
For “390 (Ac-ARRRRQAVMIYFK; not fully specified (residue 13, C-terminus); also: homodimer of residues 1-13 via Ida linker at Lys13 side chain) [compound 390]”, the IC50 is under 10 µM.
Next, “391 (Ac-ARRRRQAVNIYFK; not fully specified (residue 13, C-terminus); also: homodimer of residues 1-13 via Ida linker at Lys13 side chain) [compound 391]”: under 10 µM; “392 (Ac-ARRRRQAVPIYFK; not fully specified (residue 13, C-terminus); also: homodimer of residues 1-13 via Ida linker at Lys13 side chain) [compound 392]”: over 30 µM; “393 (Ac-ARRRRQAVQIYFK; not fully specified (residue 13, C-terminus); also: homodimer of residues 1-13 via Ida linker at Lys13 side chain) [compound 393]”: under 10 µM.
The result for “394 (Ac-ARRRRQAVSIYFK; not fully specified (residue 13, C-terminus); also: homodimer of residues 1-13 via Ida linker at Lys13 side chain) [compound 394]” reads under 10 µM; that for “395 (Ac-ARRRRQAVTIYFK; not fully specified (residue 13, C-terminus); also: homodimer of residues 1-13 via Ida linker at Lys13 side chain) [compound 395]”, under 10 µM.
Consider “396 (Ac-ARRRRQAVWIYFK; not fully specified (residue 13, C-terminus); also: homodimer of residues 1-13 via Ida linker at Lys13 side chain) [compound 396]”, for which the IC50 was under 10 µM.
Next, “397 (Ac-ARRRRQAVYIYFK; not fully specified (residue 13, C-terminus); also: homodimer of residues 1-13 via Ida linker at Lys13 side chain) [compound 397]”: under 10 µM.
“398 (Ac-ARRRRQAVLIYFK; not fully specified (residue 13, C-terminus); also: homodimer of residues 1-13 via Ida linker at Lys13 side chain) [compound 398]”: the IC50 is under 10 µM.
Regarding “399 (Ac-ARRRRQAVRIYFK; not fully specified (residue 13, C-terminus); also: homotrimer via ATA linker at Lys13 side chain) [compound 399]”, the IC50 was under 10 µM.
Consider “400 (Ac-DRRRRQAVAIYFK; not fully specified (residue 13, C-terminus); also: homodimer of residues 1-13 via Ida linker at Lys13 side chain) [compound 400]”, for which the IC50 is under 10 µM.
In the case of “401 (Ac-ERRRRQAVAIYFK(Ida(3))-NH2; also: homodimer via Ida linker on Lys13 side chain, Ida amine Boc) [compound 401]”, the IC50 was under 10 µM.
As to “402 (Ac-FRRRRQAVAIYFK(Ida(3))-NH2; also: homodimer via Ida linker on Lys13 side chain, Ida amine Boc) [compound 402]”, the IC50 is under 10 µM.
Next, “403 (Ac-GRRRRQAVAIYFK(Ida(3))-NH2; also: homodimer via Ida linker on Lys13 side chain, Boc on Ida amine) [compound 403]”: under 10 µM; “404 (Ac-IRRRRQAVAIYFK(Ida(3))-NH2; also: homodimer via Ida linker on Lys13 side chain, Boc on Ida amine) [compound 404]”: under 10 µM.
As to “405 (Ac-LRRRRQAVAIYFK(Ida(3))-NH2; also: homodimer via Ida linker on Lys13 side chain, Boc on Ida amine) [compound 405]”, the IC50 is under 10 µM.
Next, “406 (Ac-MRRRRQAVAIYFK; not fully specified (residue 13, C-terminus); also: homodimer via Ida linker on Lys side chains, linker at 13 via Ida, other end not in the chain) [compound 406]”: under 10 µM; “407 (Ac-NRRRRQAVAIYFK; not fully specified (residue 13, C-terminus); also: homodimer via Ida linker on Lys side chains, linker at 13 via Ida, other end not in the chain) [compound 407]”: under 10 µM; “408 (Ac-PRRRRQAVAIYFK; not fully specified (residue 13, C-terminus); also: homodimer via Ida linker on Lys side chains, linker at 13 via Ida, other end not in the chain) [compound 408]”: under 10 µM.
For the substance “409 (Ac-QRRRRQAVAIYFK; not fully specified (residue 13, C-terminus); also: homodimer via Ida linker on Lys side chains, linker at 13 via Ida, other end not in the chain) [compound 409]”, the IC50 was under 10 µM.
In the case of “410 (Ac-SRRRRQAVAIYFK; not fully specified (residue 13, C-terminus); also: homodimer via Ida linker on Lys side chains, linker at 13 via Ida, other end not in the chain) [compound 410]”, the IC50 was under 10 µM.
Next, “411 (Ac-TRRRRQAVAIYFK; not fully specified (residue 13, C-terminus); also: homodimer via Ida linker on Lys side chains, linker at 13 via Ida, other end not in the chain) [compound 411]”: under 10 µM.
In the case of “412 (Ac-VRRRRQAVAIYFK; not fully specified (residue 13, C-terminus); also: homodimer via Ida linker on Lys side chains, linker at 13 via Ida, other end not in the chain) [compound 412]”, the IC50 is under 10 µM.
The result for “413 (Ac-WRRRRQAVAIYFK; not fully specified (residue 13, C-terminus); also: homodimer via Ida linker on Lys side chains, linker at 13 via Ida, other end not in the chain) [compound 413]” reads under 10 µM; that for “414 (Ac-YRRRRQAVAIYFK; not fully specified (residue 13, C-terminus); also: homodimer via Ida linker on Lys side chains, linker at 13 via Ida, other end not in the chain) [compound 414]”, under 10 µM.
The result for “415 (Ac-ARRRRQAVRIKFV; not fully specified (residue 11, bridges); also: homodimer of residues 1-13 via Ida linker on K11 side chain) [compound 415]” reads under 10 µM.
The result for “416 (Ac-ARRRRQAVRIKF; not fully specified (residue 11); also: homodimer via Ida linker on Lys side chains, linker at 11 via Ida, other end not in the chain) [compound 416]” reads under 10 µM; that for “417 (Ac-RRRRRQAVAIKFV; not fully specified (residue 11); also: homodimer via Ida linker on Lys side chains, linker at 11 via Ida, other end not in the chain) [compound 417]”, under 10 µM.
Regarding “418 (Ac-ARRRRQPVAIYFK; not fully specified (residue 13, C-terminus); also: homodimer of residues 1-13 via Ida linker on K13 side chain) [compound 418]”, the IC50 is under 10 µM.
On to “419 (Ac-ARRRRQQVAIYFK; not fully specified (residue 13, C-terminus); also: homodimer of residues 1-13 via Ida linker on K13 side chain) [compound 419]”, for which the IC50 was under 10 µM.
The result for “420 (Ac-ARRRRQSVAIYFK; not fully specified (residue 13, C-terminus); also: homodimer of residues 1-13 via Ida linker on K13 side chain) [compound 420]” reads under 10 µM; that for “421 (Ac-RRRRRQAVAIKF; not fully specified (residue 11); also: homodimer of residues 1-12 via Ida linker on K11 side chain) [compound 421]”, under 10 µM.
Regarding “422 (Ac-ARRRRQTVAIYFK; not fully specified (residue 13, C-terminus); also: homodimer of residues 1-13 via Ida linker on K13 side chain) [compound 422]”, the IC50 was under 10 µM.
In the case of “423 (Ac-ARRRRQRVAIKFV; not fully specified (residue 11); also: homodimer of residues 1-13 via Ida linker on K11 side chain) [compound 423]”, the IC50 is under 10 µM.
The result for “424 (Ac-ARRRRQWVAIYFK; not fully specified (residue 13, C-terminus); also: homodimer of residues 1-13 via Ida linker on K13 side chain) [compound 424]” reads under 10 µM; that for “425 (Ac-ARRRRQRVAIKF; not fully specified (residue 11); also: homodimer of residues 1-12 via Ida linker on Lys11 side chain) [compound 425]”, under 10 µM.
